Test results: patent US9963464B2, “Macrocyclic compounds” (Bayer Pharma Aktiengesellschaft, priority 2014, dated 2018)
Read-outs that look alike come from different tables or passages of the source.

Key:
CDK9/CycT1 = biological target: T1, CDK9/CycT1 (Homo sapiens, UniProt P50750); assay: CDK9/CycT1 high ATP kinase assay (TR-FRET, Method 1b); assay type: biochemical; conditions: for IC50: Method 1b, 2 mM ATP; for Selectivity high ATP CDK9 over high ATP CDK2: IC50 (high ATP CDK2)/IC50 (high ATP CDK9): Methods 1b and 2b, minimal values where CDK9 IC50 is at the assay limit
T1 construct: Recombinant full-length His-tagged human CDK9 and CycT1; His; purchased Invitrogen PV4131; host or cells: insect cells
T1 sequence (P50750 whole entry): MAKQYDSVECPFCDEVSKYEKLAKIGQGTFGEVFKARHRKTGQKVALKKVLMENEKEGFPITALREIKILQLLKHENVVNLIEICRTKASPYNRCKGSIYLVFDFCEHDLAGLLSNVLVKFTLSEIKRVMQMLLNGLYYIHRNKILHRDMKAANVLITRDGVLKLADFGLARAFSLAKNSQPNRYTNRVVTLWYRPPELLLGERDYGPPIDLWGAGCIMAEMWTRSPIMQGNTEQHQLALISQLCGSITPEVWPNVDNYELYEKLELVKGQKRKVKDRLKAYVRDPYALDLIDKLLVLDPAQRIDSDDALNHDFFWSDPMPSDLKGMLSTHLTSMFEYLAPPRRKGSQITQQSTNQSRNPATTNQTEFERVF
T1 sequence (O60563 whole entry partner): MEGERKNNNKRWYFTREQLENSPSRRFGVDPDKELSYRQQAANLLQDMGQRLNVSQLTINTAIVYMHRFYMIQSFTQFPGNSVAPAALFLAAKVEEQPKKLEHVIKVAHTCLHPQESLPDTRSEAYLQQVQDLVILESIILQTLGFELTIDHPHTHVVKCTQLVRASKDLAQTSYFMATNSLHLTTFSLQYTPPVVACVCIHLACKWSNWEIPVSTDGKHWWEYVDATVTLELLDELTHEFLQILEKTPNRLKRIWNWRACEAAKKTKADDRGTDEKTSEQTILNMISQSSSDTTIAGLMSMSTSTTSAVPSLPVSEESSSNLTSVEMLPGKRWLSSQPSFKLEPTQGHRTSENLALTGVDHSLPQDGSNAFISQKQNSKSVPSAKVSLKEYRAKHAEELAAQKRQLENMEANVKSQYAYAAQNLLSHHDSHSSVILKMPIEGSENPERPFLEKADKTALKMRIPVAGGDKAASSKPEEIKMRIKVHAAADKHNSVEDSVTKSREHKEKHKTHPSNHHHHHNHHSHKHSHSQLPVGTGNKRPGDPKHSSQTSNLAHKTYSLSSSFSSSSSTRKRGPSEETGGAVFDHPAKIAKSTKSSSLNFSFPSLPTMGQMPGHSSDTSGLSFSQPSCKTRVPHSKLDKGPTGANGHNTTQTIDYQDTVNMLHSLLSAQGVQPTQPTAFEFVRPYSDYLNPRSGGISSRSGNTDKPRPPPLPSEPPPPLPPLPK
Procedure: 1b. CDK9/CycT1 High ATP Kinase Assay
CDK9/CycT1-inhibitory activity of compounds of the present invention at a high ATP concentration after preincubation of enzyme and test compounds was quantified employing the CDK9/CycT1 TR-FRET assay as described in the following paragraphs.
Recombinant full-length His-tagged human CDK9 and CycT1, expressed in insect cells and purified by Ni-NTA affinity chromatography, were purchase from Invitrogen (Cat. No PV4131). As substrate for the kinase reaction biotinylated peptide biotin-Ttds-YISPLKSPYKISEG (C-terminus in amid form) was used which can be purchased e.g. from the company JERINI peptide technologies (Berlin, Germany). For the assay 50 nl of a 100 fold concentrated solution of the test compound in DMSO was pipetted into a black low volume 384 well microtiter plate (Greiner Bio-One, Frickenhausen, Germany), 2 μl of a solution of CDK9/CycT1 in aqueous assay buffer [50 mM Tris/HCl pH 8.0, 10 mM MgCl2, 1.0 mM dithiothreitol, 0.1 mM sodium ortho-vanadate, 0.01% (v/v) Nonidet-P40 (Sigma)] were added and the mixture was incubated for 15 min at 22° C. to allow pre-binding of the test compounds to the enzyme before the start of the kinase reaction. […] The concentration of CDK9/CycT1 was adjusted depending of the activity of the enzyme lot and was chosen appropriate to have the assay in the linear range, typical concentrations were in the range of 0.5 μg/mL. The reaction was stopped by the addition of 5 μl of a solution of TR-FRET detection reagents (0.2 μM streptavidine-XL665 [Cisbio Bioassays, Codolet, France] and 1 nM anti-RB(pSer807/pSer811)-antibody from BD Pharmingen [#558389] and 1.2 nM LANCE EU-W1024 labeled anti-mouse IgG antibody [Perkin-Elmer, product no. AD0077]) in an aqueous EDTA-solution (100 mM EDTA, 0.2% (w/v) bovine serum albumin in 100 mM HEPES pH 7.5).
The resulting mixture was incubated 1 h at 22° C. to allow the formation of complex between the phosphorylated biotinylated peptide and the detection reagents. Subsequently the amount of phosphorylated substrate was evaluated by measurement of the resonance energy transfer from the Eu-chelate to the streptavidine-XL. Therefore, the fluorescence emissions at 620 nm and 665 nm after excitation at 350 nm was measured in a HTRF reader, e.g. a Rubystar (BMG Labtechnologies, Offenburg, Germany) or a Viewlux (Perkin-Elmer). The ratio of the emissions at 665 nm and at […] was taken as the measure for the amount of phosphorylated substrate. The data were normalised (enzyme reaction without inhibitor=0% inhibition, all other assay components but no enzyme=100% inhibition).

HeLa cells = assay: Proliferation assay HeLa; assay type: cell-based, human; conditions: 4 days, crystal violet, read-out: Inhibition of HeLa cell proliferation IC50
Procedure: Cultivated tumour cells (HeLa, human cervical tumour cells, ATCC CCL-2; NCI-H460, human non-small cell lung carcinoma cells, ATCC HTB-177; A2780, human ovarian carcinoma cells, ECACC #93112519; DU 145, hormone-independent human prostate carcinoma cells, ATCC HTB-81; HeLa-MaTu-ADR, multidrug-resistant human cervical carcinoma cells, EPO-GmbH Berlin; Caco-2, human colorectal carcinoma cells, ATCC HTB-37; B16F10, mouse melanoma cells, ATCC CRL-6475) were plated at a density of 5,000 cells/well (DU145, HeLa-MaTu-ADR), 3,000 cells/well (NCI-H460, HeLa), 2,500 cells/well (A2780), 1,500 cells/well (Caco-2), or 1,000 cells/well (B16F10) in a 96-well multititer plate in 200 μL of their respective growth medium supplemented 10% fetal calf serum. After 24 hours, the cells of one plate (zero-point plate) were stained with crystal violet (see below), while the medium of the other plates was replaced by fresh culture medium (200 μl), to which the test substances were added in various concentrations (0 μM, as well as in the range of 0.001-10 μM). The cells were incubated for 4 days in the presence of test substances. Cell proliferation was determined by staining the cells with crystal violet: the cells were fixed by adding 20 μl/measuring point of an 11% glutaric aldehyde solution for 15 minutes at room temperature. After three washing cycles of the fixed cells with water, the plates were dried at room temperature. The cells were stained by adding 100 μl/measuring point of a 0.1% crystal violet solution (pH 3.0). After three washing cycles of the stained cells with water, the plates were dried at room temperature. The dye was dissolved by adding 100 μl/measuring point of a 10% acetic acid solution. The extinction was determined by photometry at a wavelength of 595 nm. The change of cell number, in percent, was calculated by normalization of the measured values to the extinction values of the zero-point plate (=0%) and the extinction of the untreated (0 μm) cells (=100%). The IC50 values (inhibitory concentration at 50% of maximal effect) were determined by means of a 4 parameter fit. Non-adherent MOLM-13 human acute myeloid leukemia cells (DSMZ ACC 554) were seeded at a density of 5,000 cells/well in a 96-well multititer plate in 100 μL of growth medium supplemented 10% fetal calf serum. After 24 hours, cell viability of one plate (zero-point plate) was determined with the Cell Titre-Glo Luminescent Cell Viability Assay (Promega), while 50 μL of test compound containing medium was added to the wells of the other plates (final concentrations in the range of 0.001-1 μM and DMSO controls). Cell viability was assessed after 72-hour exposure with the Cell Titre-Glo Luminescent Cell Viability Assay (Promega). IC50 values (inhibitory concentration at 50% of maximal effect) were determined by means of a 4 parameter fit on measurement data which were normalized to vehicle (DMSO) treated cells (=100%) and measurement readings taken immediately before compound exposure (=0%).

Compound | IC50 (CDK9/CycT1) [nM] | Selectivity high ATP CDK9 over high ATP CDK2: IC50 (high ATP CDK2)/IC50 (high ATP CDK9) (CDK9/CycT1) | IC50 (HeLa cells; Homo sapiens, HeLa, 96 h) [nM] | IC50 (HeLa cells) [nM]
CCOC(=O)N=S(C)(=O)Cc1cc2nc(c1)OCCCOc1cc(F)ccc1-c1cc(ncc1F)N2 (racemic) [Example 20, (rac)-ethyl [{[15,19-difluoro-3,4-dihydro-2H,11H-10,6-(azeno)-12,16-(metheno)-1,5,11,13-benzodioxadiazacyclooctadecin-8-yl]methyl}(methyl)oxido-λ^6-sulfanylidene]carbamate] | 3.4 | 13.2 | 26 | 
CCNC(=O)N=S(C)(=O)Cc1cc2nc(c1)OCCCOc1cc(F)ccc1-c1cc(ncc1F)N2 (racemic) [Example 17, (rac)-1-[{[15,19-difluoro-3,4-dihydro-2H,11H-10,6-(azeno)-12,16-(metheno)-1,5,11,13-benzodioxadiazacyclooctadecin-8-yl]methyl}(methyl)oxido-λ^6-sulfanylidene]-3-ethylurea] | 2.7 | 13.5 | 11 | 
CS(=O)(Cc1cc2nc(c1)OCCCOc1cc(F)ccc1-c1cc(ncc1F)N2)=NC(=O)OCCCl (racemic) [Example 21, (rac)-2-chloroethyl [{[15,19-difluoro-3,4-dihydro-2H,11H-10,6-(azeno)-12,16-(metheno)-1,5,11,13-benzodioxadiazacyclooctadecin-8-yl]methyl}(methyl)oxido-λ^6-sulfanylidene]carbamate] | 5.9 | 12.7 | 11 | 
CSCc1cc2nc(c1)OCCCOc1cc(F)ccc1-c1cc(ncc1F)N2 [Example 3, 15,19-Difluoro-8-[(methylsulfanyl)methyl]-3,4-dihydro-2H,11H-10,6-(azeno)-12,16-(metheno)-1,5,11,13-benzodioxadiazacyclooctadecine] | 4.6 | 28.2 | 86 | 
CS(=O)(=O)Cc1cc2nc(c1)OCCCOc1cc(F)ccc1-c1cc(ncc1F)N2 [Example 8, 15,19-difluoro-8-[(methylsulfonyl)methyl]-3,4-dihydro-2H,11H-10,6-(azeno)-12,16-(metheno)-1,5,11,13-benzodioxadiazacyclooctadecine] | 2.3 | 14.9 | 12 | 
CS(=O)(Cc1cc2nc(c1)OCCCOc1cc(F)ccc1-c1cc(ncc1F)N2)=NC(=O)OCCN (racemic) [Example 25, (rac)-2-aminoethyl [{[15,19-difluoro-3,4-dihydro-2H,11H-10,6-(azeno)-12,16-(metheno)-1,5,11,13-benzodioxadiazacyclooctadecin-8-yl]methyl}(methyl)oxido-λ^6-sulfanylidene]carbamate] | 3 | 6.1 | 14 | 
CN=S(C)(=O)Cc1cc2nc(c1)OCCCOc1cc(F)ccc1-c1cc(ncc1F)N2 (racemic) [Example 19, (rac)-8-[(N,S-dimethylsulfonimidoyl)methyl]-15,19-difluoro-3,4-dihydro-2H,11H-10,6-(azeno)-12,16-(metheno)-1,5,11,13-benzodioxadiazacyclooctadecine] | 1.9 | 81.7 | 31 | 
CSCc1cc2cc(c1)OCCCOc1cc(F)ccc1-c1nc(ncc1F)N2 [Example 2, 15,19-Difluoro-8-[(methylsulfanyl)methyl]-3,4-dihydro-2H,11H-12,16-(azeno)-10,6-(metheno)-1,5,11,13-benzodioxadiazacyclooctadecine] | 4.3 | 149.6 | 62 | 
CS(=N)(=O)Cc1cc2nc(c1)OCCCOc1cc(F)ccc1-c1cc(ncc1F)N2 (single isomer, unassigned; enantiomer 1) [Example 6, 15,19-Difluoro-8-[(S-methylsulfonimidoyl)methyl]-3,4-dihydro-2H,11H-10,6-(azeno)-12,16-(metheno)-1,5,11,13-benzodioxadiazacyclooctadecine; Enantiomer 1] | 1.1 | 35.4 | 31 | 
({[15,19-difluoro-3,4-dihydro-2H,11H-10,6-(azeno)-12,16-(metheno)-1,5,11,13-benzodioxadiazacyclooctadecin-8-yl]methyl}sulfonyl)acetic acid [Example 27] | 1.7 | 3.7 |  | 1050
C[S+]([O-])Cc1cc2nc(c1)OCCCOc1cc(F)ccc1-c1cc(ncc1F)N2 (racemic) [Example 4, (rac)-15,19-Difluoro-8-[(methylsulfinyl)methyl]-3,4-dihydro-2H,11H-10,6-(azeno)-12,16-(metheno)-1,5,11,13-benzodioxadiazacyclooctadecine] | 1.6 | 19.6 | 4 | 
C[S+]([O-])Cc1cc2nc(c1)OCCCCOc1cc(F)ccc1-c1cc(ncc1F)N2 (racemic) [Example 13, (rac)-16,20-difluoro-9-[(methylsulfinyl)methyl]-2,3,4,5-tetrahydro-12H-11,7-(azeno)-13,17-(metheno)-1,6,12,14-benzodioxadiazacyclononadecine] | 3.2 | 35.3 |  | 
CSCc1cc2nc(c1)OCCOc1cc(F)ccc1-c1cc(ncc1F)N2 [Example 9, 14,18-Difluoro-7-[(methylsulfanyl)methyl]-2,3-dihydro-10H-9,5-(azeno)-11,15-(metheno)-1,4,10,12-benzodioxadiazacycloheptadecine] | 65 | >307 |  | 
